# *1 amine or outer side, *2 acyl side, *3 side chain or, on linkers, in order; H or OH if unused. Where a SMILES comes first, the peptide text is derived from it. Bridges are numbered along the chain shown (N, C = ends). [ ]: non-standard residue; d: D form. The star is where a group is joined. hPhe(3-Cl-4-CF3) = N[C@@H](CCc1ccc(C(F)(F)F)c(Cl)c1)C(=O)O; X28 = C#CCN([C@@H](Cc1ccc(C(F)(F)F)cc1)C(=O)[*:2])[*:1]; NPrPhe(4-CF3) = CCCN[C@@H](Cc1ccc(C(F)(F)F)cc1)C(=O)O; NMeGly(cPent) = CN[C@H](C(=O)O)C1CCCC1; NMeD = CN[C@@H](CC(=O)O)C(=O)O; NMeL = CN[C@@H](CC(C)C)C(=O)O; NEtAla = CCN[C@@H](C)C(=O)O; Morpholide = C1CN(*)CCO1; NMeA = CN[C@@H](C)C(=O)O; Ac5c = NC1(C(=O)O)CCCC1; Aze = O=C(O)[C@@H]1CCN1; Sar = CNCC(=O)O
# What was measured:
# [1] = target: GDP-bound HRAS wild-type protein (Homo sapiens, UniProt P01112); assay: Binding to HRAS by surface plasmon resonance (SPR), Single Cycle Kinetics
# GDP-bound HRAS wild-type protein, sequence (P01112 whole entry): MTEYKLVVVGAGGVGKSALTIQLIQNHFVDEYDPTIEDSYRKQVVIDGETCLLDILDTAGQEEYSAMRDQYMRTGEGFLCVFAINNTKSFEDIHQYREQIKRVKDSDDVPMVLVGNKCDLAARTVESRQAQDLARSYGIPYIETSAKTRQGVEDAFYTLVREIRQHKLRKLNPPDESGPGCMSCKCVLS
# [2] = target: GDP-bound NRAS wild-type protein (Homo sapiens, UniProt P01111); assay: Binding to NRAS by surface plasmon resonance (SPR), Single Cycle Kinetics
# GDP-bound NRAS wild-type protein, sequence (P01111 whole entry): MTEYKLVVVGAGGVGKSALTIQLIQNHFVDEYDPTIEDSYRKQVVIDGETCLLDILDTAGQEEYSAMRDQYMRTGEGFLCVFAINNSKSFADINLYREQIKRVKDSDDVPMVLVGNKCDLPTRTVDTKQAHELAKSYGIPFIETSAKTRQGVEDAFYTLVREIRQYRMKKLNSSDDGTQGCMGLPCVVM
SMILES,"HRAS/KRAS (ratio of KD for GDP-bound HRAS wild-type to KD for KRAS) ([1]; KD ratio HRAS/KRAS, SPR)","NRAS/KRAS (ratio of KD for GDP-bound NRAS wild-type to KD for KRAS) ([2]; KD ratio NRAS/KRAS, SPR)",further results
CC[C@H](C)[C@@H]1NC(=O)[C@H](CC2CCC2)N(C)C(=O)C[C@@H](C(=O)N(C)C)N(C)C(=O)[C@H](C2CCCC2)N(C)C(=O)C2(CCC2)N(C)C(=O)[C@@H]2CCCN2C(=O)[C@H](CCc2cc(F)c(C(F)(F)F)c(F)c2)NC(=O)CN(C)C(=O)[C@H](Cc2ccc(C)cc2)N2CC/C=C\C[C@@H](C2=O)N(C)C(=O)CN(C)C1=O [PP1802],–,–,"HRAS/KRAS (ratio of KD value for HRAS to KD value for KRAS) ([1]; KD ratio, GDP-bound HRAS wild-type vs GDP-bound KRAS wild-type, SPR): B (a compound having 3 or more and less than 10 is denoted as B); NRAS/KRAS (ratio of KD value for NRAS to KD value for KRAS) ([2]; KD ratio, GDP-bound NRAS wild-type vs GDP-bound KRAS wild-type, SPR): A (a compound having 10 or more and less than 20 is denoted as A)"
CCC[C@H]1C(=O)N[C@@H](CC(C)C)C(=O)N(CC)CC(=O)N(C)[C@H]2C/C=C\CCN(C2=O)[C@@H](Cc2ccc(C)cc2)C(=O)N(C)CC(=O)N[C@@H](CCc2ccc(C(F)(F)F)c(OC)c2)C(=O)N2C[C@H](OCC)C[C@H]2C(=O)NC2(CC(C)(C)C2)C(=O)N(C)[C@@H](C2CCCC2)C(=O)N(C)[C@H](C(=O)N(C)C)CC(=O)N1C [PP2518],–,–,"HRAS/KRAS (ratio of KD value with respect to HRAS to KD value with respect to KRAS) ([1]; SPR, GDP-bound HRAS wild-type vs GDP-bound KRAS wild-type): A (a compound having 10 or more and less than 20 is denoted as A); NRAS/KRAS (ratio of KD value with respect to NRAS to KD value with respect to KRAS) ([2]; SPR, GDP-bound NRAS wild-type vs GDP-bound KRAS wild-type): A (a compound having 10 or more and less than 20 is denoted as A)"
CCCN1C(=O)[C@@H]2CCN2C(=O)[C@H](C)N(CC)C(=O)[C@H]([C@@H](C)CC)NC(=O)[C@H](CC(C)C)N(C)C(=O)C[C@@H](C(=O)N2CCOCC2)N(C)C(=O)[C@H](C2CCCC2)N(C)C(=O)C2(CCCC2)NC(=O)[C@@H]2CCCN2C(=O)[C@H](CCc2ccc(C(F)(F)F)c(Cl)c2)NC(=O)CN(C)C(=O)[C@@H]1Cc1ccc(C(F)(F)F)cc1 [PP0152] ([NMeL]I[NEtAla][Aze][NPrPhe(4-CF3)][Sar][hPhe(3-Cl-4-CF3)]P[Ac5c][NMeGly(cPent)][NMeD]-Morpholide; lactam N-11),B (a compound having 3 or more and less than 10 is denoted as B),C (A compound having a KD ratio of 0.1 or more and less than 3 is denoted as C),–
CCCN1C(=O)CN(C)C(=O)CNC(=O)[C@H]([C@@H](C)CC)NC(=O)[C@H](CC(C)C)N(C)C(=O)C[C@@H](C(=O)N(C)C)NC(=O)[C@H](C2CCCC2)N(C)C(=O)C2(CCCC2)NC(=O)[C@@H]2CCCN2C(=O)[C@H](CCc2ccc(C(F)(F)F)c(Cl)c2)NC(=O)CN(C)C(=O)[C@@H]1Cc1ccc(C(F)(F)F)cc1 [PP0361] ([NMeL]IG[Sar][NPrPhe(4-CF3)][Sar][hPhe(3-Cl-4-CF3)]P[Ac5c][NMeGly(cPent)]D-NMe2; lactam N-11),C (A compound having a KD ratio of 0.1 or more and less than 3 is denoted as C),B (a compound having 3 or more and less than 10 is denoted as B),–
C#CCN1C(=O)[C@@H]2CCN2C(=O)[C@H](C)N(C)C(=O)[C@H]([C@@H](C)CC)NC(=O)[C@H](CC(C)C)N(C)C(=O)C[C@@H](C(=O)N2CCOCC2)N(C)C(=O)[C@H](C2CCCC2)N(C)C(=O)C2(CCCC2)NC(=O)[C@@H]2CCCN2C(=O)[C@H](CCc2ccc(C(F)(F)F)c(Cl)c2)NC(=O)CN(C)C(=O)[C@@H]1Cc1ccc(C(F)(F)F)cc1 [PP0116] ([NMeL]I[NMeA][Aze][X28][Sar][hPhe(3-Cl-4-CF3)]P[Ac5c][NMeGly(cPent)][NMeD]-Morpholide; lactam N-11),C (A compound having a KD ratio of 0.1 or more and less than 3 is denoted as C),C (A compound having a KD ratio of 0.1 or more and less than 3 is denoted as C),–
CCC[C@H]1C(=O)N[C@@H](CC(C)C)C(=O)N2C[C@@H](OC)C[C@H]2C(=O)N(C)[C@H]2C/C=C\CCN(C2=O)[C@@H](Cc2ccc(C)cc2)C(=O)N(C)CC(=O)N[C@@H](CCc2ccc(C(F)(F)F)c(OC)c2)C(=O)N2C[C@H](OCC)C[C@H]2C(=O)NC2(CCC2)C(=O)N(C)[C@@H](C2CCCC2)C(=O)N(C)[C@H](C(=O)N(C)C)CC(=O)N1C [PP2548],–,–,"HRAS/KRAS (ratio of KD value with respect to GDP-bound HRAS wild-type protein to KD value with respect to KRAS) ([1]; KD ratio HRAS/KRAS, class symbols): B (a compound having 3 or more and less than 10 is denoted as B); NRAS/KRAS (ratio of KD value with respect to GDP-bound NRAS wild-type protein to KD value with respect to KRAS) ([2]; KD ratio NRAS/KRAS, class symbols): A (a compound having 10 or more and less than 20 is denoted as A)"

# Source: patent publication US20250230193A1, “CYCLIC COMPOUND HAVING SELECTIVE KRAS INHIBITORY EFFECT ON HRAS AND NRAS” (CHUGAI SEIYAKU KABUSHIKI KAISHA, priority 2022, published 2025)
